ChEMBL document CHEMBL1201862, “PubChem BioAssay data set” (2004)
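All cell lines were grown in 96-well plates and treated with compound for 48 hours. GI50 = concentration required for 50% inhibition of growth.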 Calls of active or inactive are those of the source. No stated cut-off is given here; in the data, active = GI50 up to about 1.1 µM and inactive = higher.

What was measured:
Assay in all cases: NCI-60 cell line screen, 48 h
MOLT-4 = test system: MOLT-4
UO-31 = test system: UO-31
CCRF-CEM = test system: CCRF-CEM
T47D = test system: T47D
TK-10 = test system: TK-10
HOP-62 = test system: HOP-62
IGROV-1 = test system: IGROV-1
HCT-116 = test system: HCT-116
SK-MEL-28 = test system: SK-MEL-28
SNB-75 = test system: SNB-75
SR = test system: SR
M14 = test system: M14
U-251 = test system: U-251
OVCAR-4 = test system: OVCAR-4
KM12 = test system: KM12
CAKI-1 = test system: CAKI-1
HT-29 = test system: HT-29
RPMI-8226 = test system: RPMI-8226
MDA-N = test system: MDA-N
Malme-3M = test system: Malme-3M
A498 = test system: A498
ACHN = test system: ACHN
HL-60 = test system: HL-60
UACC-257 = test system: UACC-257
EKVX = test system: EKVX
HOP-92 = test system: HOP-92
NCI/ADR-RES = test system: NCI/ADR-RES
K562 = test system: K562
MCF7 = test system: MCF7
SK-OV-3 = test system: SK-OV-3
COLO 205 = test system: COLO 205
PC-3 = test system: PC-3
NCI-H460 = test system: NCI-H460
SNB-19 = test system: SNB-19
SF-268 = test system: SF-268
SW-620 = test system: SW-620
SF-295 = test system: SF-295
OVCAR-5 = test system: OVCAR-5
NCI-H23 = test system: NCI-H23
HCC 2998 = test system: HCC 2998
RXF 393 = test system: RXF 393
OVCAR-8 = test system: OVCAR-8
SK-MEL-5 = test system: SK-MEL-5
DU-145 = test system: DU-145
786-0 = test system: 786-0
HCT-15 = test system: HCT-15
A549 = test system: A549
MDA-MB-435 = test system: MDA-MB-435
NCI-H226 = test system: NCI-H226
SK-MEL-2 = test system: SK-MEL-2
SF-539 = test system: SF-539
LOX IMVI = test system: LOX IMVI
OVCAR-3 = test system: OVCAR-3
UACC-62 = test system: UACC-62
MDA-MB-231 = test system: MDA-MB-231
SN12C = test system: SN12C
NCI-H522 = test system: NCI-H522

COc1cc(OC)c(OC)cc1/C=C/c1cc[n+](C)c2ccccc12
GI50 (MOLT-4): 21.2 µM (inactive) | GI50 (UO-31): > 100 µM (inactive) | GI50 (CCRF-CEM): 14.8 µM (inactive) | GI50 (T47D): 33.4 µM (inactive) | GI50 (TK-10): > 100 µM (inactive) | GI50 (HOP-62): 4.89 µM (inactive) | GI50 (IGROV-1): 40 µM (inactive) | GI50 (HCT-116): 27.8 µM (inactive) | GI50 (SK-MEL-28): > 100 µM (inactive) | GI50 (SNB-75): 47.4 µM (inactive) | GI50 (SR): 17.8 µM (inactive) | GI50 (M14): 60.8 µM (inactive) | GI50 (U-251): 5.02 µM (inactive) | GI50 (OVCAR-4): 46.9 µM (inactive) | GI50 (KM12): 19.8 µM (inactive) | GI50 (CAKI-1): > 100 µM (inactive) | GI50 (HT-29): 30.5 µM (inactive) | GI50 (RPMI-8226): 21.2 µM (inactive) | GI50 (MDA-N): 24.3 µM (inactive) | GI50 (Malme-3M): > 100 µM (inactive) | GI50 (A498): > 100 µM (inactive) | GI50 (ACHN): > 100 µM (inactive) | GI50 (HL-60): 14 µM (inactive) | GI50 (UACC-257): 16.1 µM (inactive) | GI50 (EKVX): 50.2 µM (inactive) | GI50 (HOP-92): 23.9 µM (inactive) | GI50 (NCI/ADR-RES): > 100 µM (inactive) | GI50 (K562): 3.07 µM (inactive) | GI50 (MCF7): 49.2 µM (inactive) | GI50 (SK-OV-3): 52.2 µM (inactive) | GI50 (COLO 205): 5.96 µM (inactive) | GI50 (PC-3): 20.7 µM (inactive) | GI50 (NCI-H460): 33.2 µM (inactive) | GI50 (SNB-19): 8.45 µM (inactive) | GI50 (SF-268): 51.2 µM (inactive) | GI50 (SW-620): 36.2 µM (inactive) | GI50 (SF-295): 15.3 µM (inactive) | GI50 (OVCAR-5): > 100 µM (inactive) | GI50 (NCI-H23): 12.1 µM (inactive) | GI50 (HCC 2998): 52.6 µM (inactive) | GI50 (RXF 393): 53.1 µM (inactive) | GI50 (OVCAR-8): 9.93 µM (inactive) | GI50 (SK-MEL-5): 11 µM (inactive) | GI50 (DU-145): 86.9 µM (inactive) | GI50 (786-0): 25.2 µM (inactive) | GI50 (HCT-15): > 100 µM | GI50 (A549): 25.9 µM (inactive)

O=NNc1cnc(O)nc1O
GI50 (MOLT-4): > 100 µM (inactive) | GI50 (UO-31): > 100 µM (inactive) | GI50 (CCRF-CEM): > 100 µM (inactive) | GI50 (T47D): > 100 µM (inactive) | GI50 (TK-10): > 100 µM (inactive) | GI50 (HOP-62): > 100 µM (inactive) | GI50 (IGROV-1): 52.4 µM (inactive) | GI50 (MDA-MB-435): > 100 µM (inactive) | GI50 (HCT-116): > 100 µM (inactive) | GI50 (SK-MEL-28): > 100 µM (inactive) | GI50 (SNB-75): 8.75 µM (inactive) | GI50 (M14): > 100 µM (inactive) | GI50 (NCI-H226): > 100 µM (inactive) | GI50 (U-251): > 100 µM (inactive) | GI50 (SK-MEL-2): > 100 µM (inactive) | GI50 (SF-539): > 100 µM (inactive) | GI50 (OVCAR-4): > 100 µM (inactive) | GI50 (KM12): > 100 µM (inactive) | GI50 (LOX IMVI): > 100 µM (inactive) | GI50 (CAKI-1): > 100 µM (inactive) | GI50 (RPMI-8226): > 100 µM (inactive) | GI50 (MDA-N): > 100 µM (inactive) | GI50 (Malme-3M): > 100 µM (inactive) | GI50 (OVCAR-3): 74.8 µM (inactive) | GI50 (A498): 92.7 µM (inactive) | GI50 (ACHN): > 100 µM (inactive) | GI50 (HL-60): 49.3 µM (inactive) | GI50 (UACC-257): > 100 µM (inactive) | GI50 (EKVX): > 100 µM (inactive) | GI50 (UACC-62): 71.3 µM (inactive) | GI50 (HOP-92): > 100 µM (inactive) | GI50 (MDA-MB-231): > 100 µM (inactive) | GI50 (NCI/ADR-RES): > 100 µM (inactive) | GI50 (K562): > 100 µM (inactive) | GI50 (MCF7): > 100 µM (inactive) | GI50 (SK-OV-3): > 100 µM (inactive) | GI50 (COLO 205): > 100 µM (inactive) | GI50 (PC-3): > 100 µM (inactive) | GI50 (SNB-19): > 100 µM (inactive) | GI50 (SW-620): > 100 µM (inactive) | GI50 (SF-295): > 100 µM (inactive) | GI50 (NCI-H23): > 100 µM (inactive) | GI50 (HCC 2998): > 100 µM (inactive) | GI50 (SN12C): > 100 µM (inactive) | GI50 (RXF 393): > 100 µM (inactive) | GI50 (OVCAR-8): > 100 µM (inactive) | GI50 (SK-MEL-5): > 100 µM (inactive) | GI50 (NCI-H522): > 100 µM (inactive) | GI50 (DU-145): > 100 µM (inactive) | GI50 (786-0): > 100 µM (inactive) | GI50 (HCT-15): > 100 µM | GI50 (A549): > 100 µM (inactive)
